The assay addresses T1, human ALX receptor (Homo sapiens, UniProt P25090).
T1 construct: expressed in transfected cells; host or cells: HEK293 (HEK293-hALXR-Ga16)
T1 sequence (P25090 1-351): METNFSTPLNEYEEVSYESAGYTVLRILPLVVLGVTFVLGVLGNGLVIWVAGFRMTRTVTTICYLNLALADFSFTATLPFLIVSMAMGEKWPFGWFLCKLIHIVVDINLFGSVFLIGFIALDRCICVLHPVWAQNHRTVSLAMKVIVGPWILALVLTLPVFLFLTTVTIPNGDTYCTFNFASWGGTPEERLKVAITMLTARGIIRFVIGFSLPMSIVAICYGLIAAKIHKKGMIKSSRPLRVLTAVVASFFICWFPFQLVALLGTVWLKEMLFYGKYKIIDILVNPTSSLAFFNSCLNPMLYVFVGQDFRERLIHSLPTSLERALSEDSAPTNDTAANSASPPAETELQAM
The experiment in a line: Intracellular calcium measurements (FLIPR), ALX receptor agonistic activity. The note with it: HEK293-hALXR-Ga16 cells, calcium flux, normalized to WKYMVm 10 nM; read-out: EC50 (agonistic activity with respect to the ALX receptor). The class given is cell-based. How it is done:
The ALX receptor agonistic activity of the compounds of formula (I) is determined in accordance with the following experimental method.
Intracellular Calcium Measurements:
Cells expressing recombinant human ALX receptor and the G-protein Ga16 (HEK293-hALXR-Ga16) were grown to 80% confluency in Growing Medium (GM). Cells were detached from culture dishes with a cell dissociation buffer (Invitrogen, 13151-014), and collected by centrifugation at 1′000 rpm at rt for 5 min in Assay Buffer (AB) (equal parts of Hank's BSS (Gibco, 14065-049) and DMEM without Phenol Red (Gibco, 11880-028)). After 60 min incubation at 37° C. under 5% CO2 in AB supplemented with 1 μM Fluo-4 (AM) (Invitrogen, F14202) and 20 mM HEPES (Gibco, 15630-056), the cells were washed and resuspended in AB. They were then seeded onto 384-well FLIPR assay plates (Greiner, 781091) at 50′000 cells in 70 μl per well and sedimented by centrifugation at 1′000 rpm for 1 min. Stock solutions of test compounds were made up at a concentration of 10 mM in DMSO, and serially diluted in AB to concentrations required for activation dose response curves. WKYMVm (Phoenix Peptides) was used as a reference agonist. A FLIPR Tetra instrument (Molecular Devices) was operated according to the manufacturer's standard instructions, adding 4 μl of test compound dissolved at 10 mM in DMSO and diluted prior to the experiment in assay buffer to obtain the desired final concentration. Changes in fluorescence were monitored before and after the addition of test compounds at lex=488 nm and lem=540 nm. Emission peak values above base level after compounds addition were exported after base line subtraction. Values were normalized to high-level control (WKYMVm compound, 10 nM final concentration) after subtraction of the base line value (AB addition).
Background: Calcium flux is commonly read through the fluorescence of an indicator in the cells.

Each structure is given as a SMILES string.

The term EC50 denotes the midpoint of the concentration-response curve. Turning to `Cc1nc(C(=O)Nc2cnn(Cc3nc(C(C)(F)F)cs3)n2)c(-c2cccc(Cl)c2)o1` [Example 29, 5-(3-Chloro-phenyl)-2-methyl-oxazole-4-carboxylic acid {2-[4-(1,1-difluoro-ethyl)-thiazol-2-ylmethyl]-2H-[1,2,3]triazol-4-yl}-amide], the EC50 worked out at 5.6 nM.

As for `CC(F)(F)c1ccc(Cn2ncc(NC(=O)c3ncoc3-c3ccccc3)n2)o1` [Example 28, 5-Phenyl-oxazole-4-carboxylic acid {2-[5-(1,1-difluoro-ethyl)-furan-2-ylmethyl]-2H-[1,2,3]triazol-4-yl}-amide], the EC50 amounted to 6 nM.

In the case of `Cc1nc(C(=O)Nc2cnn(Cc3nc(C(C)(F)F)co3)n2)c(-c2ccccc2)o1` [Example 33, 2-Methyl-5-phenyl-oxazole-4-carboxylic acid {2-[4-(1,1-difluoro-ethyl)-oxazol-2-ylmethyl]-2H-[1,2,3]triazol-4-yl}-amide], the EC50 came out at 2.9 nM.

With `Cc1cccc(-c2oc(C)nc2C(=O)Nc2cnn(Cc3nc(C(C)(F)F)cs3)n2)c1` [Example 3, 2-Methyl-5-m-tolyl-oxazole-4-carboxylic acid{2-[4-(1,1-difluoro-ethyl)-thiazol-2-ylmethyl]-2H-[1,2,3]triazol-4-yl}-amide], the EC50 was 7.7 nM.

For the compound `CC(F)(F)c1csc(Cn2ncc(NC(=O)c3nc(C4CC4)oc3-c3ccccc3)n2)n1` [Example 9, 2-Cyclopropyl-5-phenyl-oxazole-4-carboxylic acid{2-[4-(1,1-difluoro-ethyl)-thiazol-2-ylmethyl]-2H-[1,2,3]triazol-4-yl}-amide], the EC50 was 291 nM.

Turning to `Cc1nc(C(=O)Nc2cnn(Cc3nc(C(C)(F)F)co3)n2)c(-c2ccc(F)c(N(C)C)c2)o1` [Example 36, 5-(3-Dimethylamino-4-fluoro-phenyl)-2-methyl-oxazole-4-carboxylic acid{2-[4-(1,1-difluoro-ethyl)-oxazol-2-ylmethyl]-2H-[1,2,3]triazol-4-yl}-amide], the half-maximal effective concentration (EC50) came out at 77 nM.

Take `CCc1nc(C(=O)Nc2cnn(Cc3nc(C(C)(F)F)cs3)n2)c(-c2ccccc2)o1` [Example 30, 2-Ethyl-5-phenyl-oxazole-4-carboxylic acid {2-[4-(1,1-difluoro-ethyl)-thiazol-2-ylmethyl]-2H-[1,2,3]triazol-4-yl}-amide]: the EC50 stood at 11 nM.

For `Cc1nc(C(=O)Nc2cnn(Cc3ccc(C(C)(F)F)o3)n2)c(-c2cccc(C(F)(F)F)c2)o1` [Example 24, 2-Methyl-5-(3-trifluoromethyl-phenyl)-oxazole-4-carboxylic acid {2-[5-(1,1-difluoro-ethyl)-furan-2-ylmethyl]-2H-[1,2,3]triazol-4-yl}-amide], the EC50 came to 2.1 nM.

Turning to `CC(F)(F)c1csc(Cn2ncc(NC(=O)c3ncoc3-c3ccccc3)n2)n1` [Example 2, 5-Phenyl-oxazole-4-carboxylic acid {2-[4-(1,1-difluoro-ethyl)-thiazol-2-ylmethyl]-2H-[1,2,3]triazol-4-yl}-amide], the concentration giving a half-maximal response (EC50) is 19 nM.

Regarding `Cc1nc(C(=O)Nc2cnn(Cc3nc(C(C)(F)F)cs3)n2)c(-c2cc(F)cc(F)c2)o1` [Example 5, 5-(3,5-Difluoro-phenyl)-2-methyl-oxazole-4-carboxylic acid {2-[4-(1,1-difluoro-ethyl)-thiazol-2-ylmethyl]-2H-[1,2,3]triazol-4-yl}-amide], the EC50 came to 818 nM.

As for `CN(C)c1cccc(-c2ocnc2C(=O)Nc2cnn(Cc3nc(C(C)(F)F)cs3)n2)c1` [Example 22, 5-(3-Dimethylamino-phenyl)-oxazole-4-carboxylic acid {2-[4-(1,1-difluoro-ethyl)-thiazol-2-ylmethyl]-2H-[1,2,3]triazol-4-yl}-amide], the EC50 turned out to be 52 nM.

In the case of `CN(C)c1cccc(-c2ocnc2C(=O)Nc2cnn(Cc3ccc(C(C)(F)F)o3)n2)c1` [Example 19, 5-(3-Dimethylamino-phenyl)-oxazole-4-carboxylic acid {2-[5-(1,1-difluoro-ethyl)-furan-2-ylmethyl]-2H-[1,2,3]triazol-4-yl}-amide], the EC50 is 33 nM.

Take `COc1cccc(-c2ocnc2C(=O)Nc2cnn(Cc3ccc(C(C)(F)F)o3)n2)c1` [Example 21, 5-(3-Methoxy-phenyl)-oxazole-4-carboxylic acid {2-[5-(1,1-difluoro-ethyl)-furan-2-ylmethyl]-2H-[1,2,3]triazol-4-yl}-amide]: the EC50 turned out to be 35 nM.

With `CC(F)(F)c1ccc(Cn2ncc(NC(=O)c3ncoc3-c3ccc(F)cc3)n2)o1` [Example 16, 5-(4-Fluoro-phenyl)-oxazole-4-carboxylic acid{2-[5-(1,1-difluoro-ethyl)-furan-2-ylmethyl]-2H-[1,2,3]triazol-4-yl}-amide], the EC50 is 46 nM.

Consider `CC(F)(F)c1csc(Cn2ncc(NC(=O)c3ncoc3-c3ccc(F)cc3)n2)n1` [Example 25, 5-(4-Fluoro-phenyl)-oxazole-4-carboxylic acid {2-[4-(1,1-difluoro-ethyl)-thiazol-2-ylmethyl]-2H-[1,2,3]triazol-4-yl}-amide], for which the EC50 worked out at 221 nM.

As to `Cc1nc(C(=O)Nc2cnn(Cc3ccc(C(C)(F)F)o3)n2)c(-c2cccc(OC(F)(F)F)c2)o1` [Example 27, 2-Methyl-5-(3-trifluoromethoxy-phenyl)-oxazole-4-carboxylic acid {2-[5-(1,1-difluoro-ethyl)-furan-2-ylmethyl]-2H-[1,2,3]triazol-4-yl}-amide], the EC50 came out at 59 nM.

Regarding `Cc1nc(C(=O)Nc2cnn(Cc3nc(C(C)(F)F)cs3)n2)c(-c2ccccc2)o1` [Example 10, 2-Methyl-5-phenyl-oxazole-4-carboxylic acid{2-[4-(1,1-difluoro-ethyl)-thiazol-2-ylmethyl]-2H-[1,2,3]triazol-4-yl}-amide], the EC50 stood at 6.3 nM.

`Cc1cc(F)cc(-c2oc(C)nc2C(=O)Nc2cnn(Cc3ccc(C(C)(F)F)o3)n2)c1` [Example 26, 5-(3-Fluoro-5-methyl-phenyl)-2-methyl-oxazole-4-carboxylic acid {2-[5-(1,1-difluoro-ethyl)-furan-2-ylmethyl]-2H-[1,2,3]triazol-4-yl}-amide]: the concentration for a half-maximal effect (EC50) is 742 nM.

As for `CC(F)(F)c1csc(Cn2ncc(NC(=O)c3ncoc3-c3cccc(Cl)c3)n2)n1` [Example 12, 5-(3-Chloro-phenyl)-oxazole-4-carboxylic acid{2-[4-(1,1-difluoro-ethyl)-thiazol-2-ylmethyl]-2H-[1,2,3]triazol-4-yl}-amide], the EC50 was found to be 46 nM.

For the compound `CC(F)(F)c1ccc(Cn2ncc(NC(=O)c3ncoc3-c3cccc(Cl)c3)n2)o1` [Example 7, 5-(3-Chloro-phenyl)-oxazole-4-carboxylic acid{2-[5-(1,1-difluoro-ethyl)-furan-2-ylmethyl]-2H-[1,2,3]triazol-4-yl}-amide], the EC50 came to 17 nM.

As to `COc1cccc(-c2ocnc2C(=O)Nc2cnn(Cc3nc(C(C)(F)F)cs3)n2)c1` [Example 8, 5-(3-Methoxy-phenyl)-oxazole-4-carboxylic acid{2-[4-(1,1-difluoro-ethyl)-thiazol-2-ylmethyl]-2H-[1,2,3]triazol-4-yl}-amide], the EC50 is 69 nM.

As to `Cc1nc(C(=O)Nc2cnn(Cc3nc(C(C)(F)F)cs3)n2)c(-c2cccc(C(F)(F)F)c2)o1` [Example 6, 2-Methyl-5-(3-trifluoromethyl-phenyl)-oxazole-4-carboxylic acid {2-[4-(1,1-difluoro-ethyl)-thiazol-2-ylmethyl]-2H-[1,2,3]triazol-4-yl}-amide], the EC50 turned out to be 14 nM.

As for `Cc1nc(C(=O)Nc2cnn(Cc3ccc(C(C)(F)F)o3)n2)c(-c2cccc(Cl)c2)o1` [Example 15, 5-(3-Chloro-phenyl)-2-methyl-oxazole-4-carboxylic acid{2-[5-(1,1-difluoro-ethyl)-furan-2-ylmethyl]-2H-[1,2,3]triazol-4-yl}-amide], the concentration giving a half-maximal response (EC50) worked out at 23 nM.

On to `Cc1cc(F)cc(-c2oc(C)nc2C(=O)Nc2cnn(Cc3nc(C(C)(F)F)cs3)n2)c1` [Example 13, 5-(3-Fluoro-5-methyl-phenyl)-2-methyl-oxazole-4-carboxylic acid{2-[4-(1,1-difluoro-ethyl)-thiazol-2-ylmethyl]-2H-[1,2,3]triazol-4-yl}-amide], for which the EC50 is 1130 nM.

With `Cc1nc(C(=O)Nc2cnn(Cc3ccc(C(C)(F)F)o3)n2)c(-c2cc(F)cc(F)c2)o1` [Example 18, 5-(3,5-Difluoro-phenyl)-2-methyl-oxazole-4-carboxylic acid {2-[5-(1,1-difluoro-ethyl)-furan-2-ylmethyl]-2H-[1,2,3]triazol-4-yl}-amide], the 50% effective concentration (EC50) stood at 661 nM.

These data come from US8580831B2, “Fluorinated aminotriazole derivatives” (Actelion Pharmaceuticals Ltd., priority 2009, dated 2013).
